Measured values published in the supplement of paper PMC4862054.
“And” between values parts separate entries of the source, which are not always exact repeats. Equal entries are not always repeated.

Assays:
Conditions in all cases: incubation time: 72 h
[1] = tested on: CAL-85-1; experiment: normalised viability (% of control), CellTiter-Blue; higher = more viable cells (about 100 = DMSO control)
Experimental: (§1)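 DSRT, CellTiter-Blue viability, 72 h incubation. Signal is normalised to DMSO and benzethonium chloride controls. Value is the normalised response at dose 9.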

[2] = tested on: CAL-148; experiment: as above
Experimental: as §1

[3] = tested on: HDQ-P1; experiment: as above
Experimental: as §1

[4] = tested on: MDA-MB-453; experiment: as above
Experimental: as §1

[5] = tested on: CAL-51; experiment: as above
Experimental: as §1

[6] = tested on: DU-4475; experiment: as above
Experimental: as §1

[7] = tested on: HCC1599; experiment: normalised response (% of control), CellTiter-Glo; higher = more viable cells (100 = DMSO, 0 = benzethonium chloride kill control)
Method in brief: (§2)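 Plates were normalised with 0.1 % DMSO as 100 and a positive kill control as 0. Breast cancer cell lines in 20 µl suspension had been seeded into 384-well plates with compound at 5 concentrations in 10-fold steps over a compound-specific 10,000-fold range, incubated 72 h, and read for CellTox Green fluorescence (485/520 nm) followed by CellTiter-Glo luminescence. Each value is the normalised signal at a single concentration.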

[8] = tested on: BT-474; experiment: as above
Method in brief: as §2

[9] = tested on: HCC1937; experiment: as above
Method in brief: as §2

[10] = tested on: HCC1143; experiment: as above
Method in brief: as §2

[11] = tested on: MDA-MB-468; experiment: as above
Method in brief: as §2

[12] = tested on: CAL-85-1; experiment: as above
Method in brief: as §2

[13] = tested on: CAL-148; experiment: as above
Method in brief: as §2

[14] = tested on: BT-549; experiment: as above
Method in brief: as §2

[15] = tested on: SK-BR-3; experiment: as above
Method in brief: as §2

[16] = tested on: HDQ-P1; experiment: as above
Method in brief: as §2

[17] = tested on: MFM-223; experiment: as above
Method in brief: as §2

[18] = tested on: Hs578T; experiment: as above
Method in brief: as §2

[19] = tested on: MDA-MB-453; experiment: as above
Method in brief: as §2

[20] = tested on: CAL-51; experiment: as above
Method in brief: as §2

[21] = tested on: CAL-120; experiment: as above
Method in brief: as §2

| SMILES | normalised viability [1] | normalised viability [2] | normalised viability [3] | normalised viability [4] | normalised viability [5] | normalised viability [6] | normalised response [7] [%] | normalised response [8] [%] | normalised response [9] [%] | normalised response [10] [%] | normalised response [11] [%] | normalised response [12] [%] | normalised response [13] [%] | normalised response [14] [%] | normalised response [15] [%] | normalised response [16] [%] | normalised response [17] [%] | normalised response [18] [%] | normalised response [19] [%] | normalised response [20] [%] | normalised response [21] [%] |
| --- | --- | --- | --- | --- | --- | --- | --- | --- | --- | --- | --- | --- | --- | --- | --- | --- | --- | --- | --- | --- | --- |
| COc1ccc(-c2cc3c(C)nc(N)nc3n([C@H]3CC[C@H](OCCO)CC3)c2=O)cn1 (10000 nM) | 5.23% | 1.46% | 5.55% | 2.5% | 2.53% | 0.68% | 44 | 23.9 | 8.02 | 7.29 | 4.65 | 4.45 | 4.36 | 8.65 | 18.6 | 10.8 | 13 | 5.22 | 3.84 | 0.68 | 26.1 |
| O=C(Nc1c[nH]nc1-c1nc2ccc(CN3CCOCC3)cc2[nH]1)NC1CC1 [AT9283] (1000 nM) | – | – | – | – | – | – | 74.4 | 58.6 | 73.7 | 60.8 | 31.1 | 59.6 | 86.1 | 27.8 | 70.8 | 50.8 | 75.5 | 54.8 | 185 | 83 | 46.9 |
| COc1cc(CCc2cc(NC(=O)c3ccc(N4CC(C)NC(C)C4)cc3)n[nH]2)cc(OC)c1 (centres undefined) [AZD4547] (1000 nM) | 2.48% | 11.9% | 123% | 8.97% | 3.02% | 0.72% | 80.9 | 99.6 | 95.8 | 96.5 | 104 | 105 | 93 | 88.7 | 89.6 | 93.7 | 53.3 | 87.6 | 85 | 108 | 68.2 |
| CCC/C=C/C=C/C(=O)O[C@H]1/C(=C/C(=O)OC)C[C@H]2C[C@H]([C@@H](C)O)OC(=O)C[C@H](O)C[C@@H]3C[C@H](OC(C)=O)C(C)(C)[C@](O)(C[C@@H]4C/C(=C/C(=O)OC)C[C@H](/C=C/C(C)(C)[C@]1(O)O2)O4)O3 [Bryostatin 1] (100 nM) | 99.2% | 67.6% | 104% | 102% | 109% | 77.3% | 86.4 | 81.2 | 98.6 | 94.1 | 98.3 | 98.5 | 107 | 87.9 | 73.6 | 81.5 | 104 | 88.6 | 103 | 96.5 | 104 |
| CO[C@@H](C(=O)N1Cc2[nH]nc(NC(=O)c3ccc(N4CCN(C)CC4)cc3)c2C1)c1ccccc1 [Danusertib] (10000 nM) | 32.1% | 69.4% | 10.4% | 31.3% | 17.7% | 13.9% | 78.5 | 55.5 | 85.3 | 47.1 | 50.1 | 67.8 | 94.9 | 14.7 | 85.6 | 44.2 | 45.6 | 46.1 | 95 | 31.1 | 22.1 |
| Cc1nc(Nc2ncc(C(=O)Nc3c(C)cccc3Cl)s2)cc(N2CCN(CCO)CC2)n1 [Dasatinib] (1000 nM) | 37.7% and 37.6% | 112% and 97.6% | 11.7% and 10.7% | 84.2% and 84.5% | 36.7% and 40.3% | 100% and 110% | 97.7 | 45.7 | 55.2 | 60.3 | 73.1 | 35.8 | 103 | 55.3 | 97.1 | 27.1 | 80.9 | 31.9 | 80.5 | 47.9 | 48.6 |
| Cc1c(CN2CCN(C(=O)[C@H](C)O)CC2)sc2c(N3CCOCC3)nc(-c3cnc(N)nc3)nc12 [GDC-0980] (10000 nM) | 15.2% | 3.74% | 10.9% | 3.22% | 3.17% | 9.81% | 66.2 | 47.6 | 29.5 | 20.7 | 17.8 | 18.2 | 10 | 19 | 19.2 | 10.6 | 26.2 | 20.3 | 9.21 | 8.48 | 23.2 |
| Nc1cccc2c1CN(C1CCC(=O)NC1=O)C2=O (centres undefined) [Lenalidomide] (10000 nM) | 81.6% and 86.1% | 86.1% and 106% | 106% and 110% | 94.2% and 92.1% | 97.1% and 99.6% | 95% and 80.6% | 103 | 94 | 102 | 95.3 | 107 | 103 | 104 | 98 | 98.5 | 93.6 | 100 | 98.1 | 102 | 114 | 93.6 |
| C[C@]12O[C@H](C[C@]1(O)CO)n1c3ccccc3c3c4c(c5c6ccccc6n2c5c31)CNC4=O [Lestaurtinib] (1000 nM) | 39.7% | 90.9% | 77.9% | 28.9% | 55% | 2.87% | 24.3 | 56.8 | 56 | 71.9 | 35.6 | 32.5 | 99.6 | 30.3 | 29.1 | 61.6 | 46.4 | 61.4 | 79 | 91.1 | 49.5 |
| O=C1c2c(O)ccc(O)c2C(=O)c2c(NCCNCCO)ccc(NCCNCCO)c21 [Mitoxantrone] (1000 nM) | 34% | 7.8% | 48.9% | 31% | 16.9% | 0.48% | 85.2 | 79.3 | 87.4 | 73.9 | 59.4 | 73.9 | 40.4 | 73.6 | 56.2 | 85 | 100 | 89.4 | 129 | 49 | 91.2 |
| Nc1ccccc1NC(=O)c1ccc(CNc2nccc(-c3cccnc3)n2)cc1 [Mocetinostat] (10000 nM) | 21% | 10% | 48.4% | 11.9% | 19.3% | 2.37% | 17.1 | 16.9 | 49.8 | 24.9 | 5.88 | 6.94 | 12.2 | 27.1 | 1.68 | 38.2 | 36.7 | 29 | 9.77 | 18.3 | 32 |
| COc1nc(N)nc2c1ncn2[C@@H]1O[C@H](CO)[C@@H](O)[C@@H]1O [Nelarabine] (10000 nM) | 100% and 103% | 106% and 96.7% | 69.1% and 69% | 84.5% and 97.5% | 99.6% and 98.4% | 109% and 104% | 117 | 87 | 91.7 | 94.9 | 87.1 | 103 | 78.7 | 95.8 | 76.6 | 91.6 | 89.5 | 90.5 | 81.3 | 143 | 98.6 |
| Cc1ccc(Nc2nccc(N(C)c3ccc4c(C)n(C)nc4c3)n2)cc1S(N)(=O)=O [Pazopanib] (10000 nM) | 100% | 79.5% | 80.7% | 62.2% | 83.9% | 86.8% | 94.9 | 91.4 | 102 | 97.2 | 83.3 | 103 | 106 | 48.1 | 105 | 98.1 | 55.8 | 88.5 | 91.8 | 67.5 | 89.4 |
| O=C(CCBr)N1CCN(C(=O)CCBr)CC1 [Pipobroman] (10000 nM) | 85.6% | 84.8% | 109% | 7.05% | 108% | 112% | 99 | 94.7 | 98.2 | 103 | 100 | 98.2 | 101 | 101 | 108 | 107 | 103 | 103 | 110 | 86.5 | 95.8 |
| C[C@]12C=CC(=O)C=C1CC[C@@H]1[C@@H]2[C@@H](O)C[C@@]2(C)[C@H]1CC[C@]2(O)C(=O)CO [Prednisolone] (10000 nM) | 109% | 99.2% | 120% | 79.8% | 103% | 102% | 102 | 144 | 101 | 112 | 113 | 118 | 111 | 99 | 96.7 | 84.7 | 101 | 109 | 94.9 | 88.8 | 76.9 |
| CNC(=O)c1cc(Oc2ccc(NC(=O)Nc3ccc(Cl)c(C(F)(F)F)c3)cc2)ccn1 [Sorafenib] (1000 nM) | 76.9% and 89.3% | 96.7% and 105% | – | 81% and 96.6% | 78.7% and 89.8% | – | 94.1 | 102 | 102 | 106 | 112 | 108 | 113 | 102 | 96.9 | 99.3 | 78.6 | 96 | 92.4 | 146 | 112 |
| CCN(CC)CCNC(=O)c1c(C)[nH]c(/C=C2\C(=O)Nc3ccc(F)cc32)c1C [Sunitinib] (1000 nM) | 105% and 107% | 107% and 117% | – | 89.9% and 93.9% | 112% and 98.6% | 88.2% and 77.7% | 105 | 98.9 | 91.7 | 103 | 107 | 107 | 113 | 108 | 105 | 86.1 | 81.8 | 97.5 | 97.3 | 109 | 82.6 |
| CC[C@@]1(O)C(=O)OCc2c1cc1n(c2=O)Cc2cc3c(CN(C)C)c(O)ccc3nc2-1 [Topotecan] (1000 nM) | 37.5% | 13.8% | 77.7% | 44.6% | 15.6% | 12.4% | – | – | – | – | – | – | – | – | – | – | – | – | – | – | – |
